This test has as its target T1, Sodium/glucose cotransporter 2 (Homo sapiens, UniProt P31639).
T1 sequence (P31639 whole entry): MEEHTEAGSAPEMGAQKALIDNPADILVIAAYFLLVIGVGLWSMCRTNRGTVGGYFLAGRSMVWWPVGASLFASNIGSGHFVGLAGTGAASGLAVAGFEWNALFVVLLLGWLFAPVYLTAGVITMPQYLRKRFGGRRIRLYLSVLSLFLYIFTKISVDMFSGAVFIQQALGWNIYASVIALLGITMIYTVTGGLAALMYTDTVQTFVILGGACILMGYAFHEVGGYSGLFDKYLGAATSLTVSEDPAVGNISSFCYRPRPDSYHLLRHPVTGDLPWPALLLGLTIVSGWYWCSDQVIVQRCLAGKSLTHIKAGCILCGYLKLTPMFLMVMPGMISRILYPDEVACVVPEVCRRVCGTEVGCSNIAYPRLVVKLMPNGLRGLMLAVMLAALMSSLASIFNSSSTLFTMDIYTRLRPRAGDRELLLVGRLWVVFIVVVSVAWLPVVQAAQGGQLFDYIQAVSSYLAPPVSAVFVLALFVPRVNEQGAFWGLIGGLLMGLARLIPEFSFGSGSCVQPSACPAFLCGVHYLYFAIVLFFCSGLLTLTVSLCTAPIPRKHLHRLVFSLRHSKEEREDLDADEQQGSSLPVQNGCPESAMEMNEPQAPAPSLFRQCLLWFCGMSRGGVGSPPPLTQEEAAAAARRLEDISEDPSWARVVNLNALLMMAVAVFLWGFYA
Nature of the test: Inhibition of human SGLT2.

pIC50: −log10 of the molar value.

For the compound `CCc1ccc(Cc2cc([C@@H]3O[C@H](CO)C(F)(F)[C@H](O)[C@H]3O)ccc2Cl)cc1`, the pIC50 was 9.46.

In general, pIC50 refers to the IC50 on a negative log10 scale, so that one unit is a factor of ten. A high value points to a small IC50.
